Consider 26 molecules from US7160888B2, “[1,8]naphthyridin-2-ones and related compounds for the treatment of schizophrenia” (Warner Lambert Company LLC, priority 2003, dated 2007).

Sequence of D2 receptor (P14416 whole entry): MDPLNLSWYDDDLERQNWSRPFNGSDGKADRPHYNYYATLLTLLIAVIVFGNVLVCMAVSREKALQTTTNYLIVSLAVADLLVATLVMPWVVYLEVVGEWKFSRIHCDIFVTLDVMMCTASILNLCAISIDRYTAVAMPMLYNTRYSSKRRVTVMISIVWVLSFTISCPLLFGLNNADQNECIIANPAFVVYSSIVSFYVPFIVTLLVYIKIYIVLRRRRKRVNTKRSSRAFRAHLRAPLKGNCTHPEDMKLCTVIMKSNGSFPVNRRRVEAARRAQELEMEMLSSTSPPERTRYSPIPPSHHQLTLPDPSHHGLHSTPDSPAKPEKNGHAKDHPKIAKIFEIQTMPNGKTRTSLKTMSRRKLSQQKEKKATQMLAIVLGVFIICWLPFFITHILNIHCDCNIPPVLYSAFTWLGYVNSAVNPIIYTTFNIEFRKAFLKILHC

The first experiment has as its target D2 receptor (Homo sapiens, UniProt P14416). In words: [3H]Thymidine uptake assay for D2 intrinsic activity. On the set-up: Emax: dose or concentration left out as unconfirmed. Format: cell-based. As to conditions: Table 1; test compound 1 μM; 1 μM Quinpirole = 100% intrinsic activity.
Regarding `O=c1ccc2ccc(OCCCCN3CCN(c4cccc5c4CCC5)CC3)nc2[nH]1` [Example B32, 7-[4-(4-Indan-4-yl-piperazin-1-yl)-butoxy]-1H-[1,8]naphthyridin-2-one], the Emax at 1 µM was 19%. Molecule `O=c1ccc2cnc(OCCCCN3CCN(c4cccc5c4CCCC5)CC3)cc2[nH]1` [Example I14, 7-{4-[4-(5,6,7,8-Tetrahydro-naphthalen-1-yl)-piperazin-1-yl]-butoxy}-1H-[1,6]naphthyridin-2-one] displayed an Emax at 1 µM of 24%. In turn, `N#Cc1ccc2cccc(N3CCN(CCCCOc4ccc5c(n4)NC(=O)NC5)CC3)c2c1` [Example F6, 8-{4-[4-(2-Oxo-1,2,3,4-tetrahydro-pyrido[2,3-d]pyrimidin-7-yloxy)-butyl]-piperazin-1-yl}-naphthalene-2-carbonitrile] returned an Emax at 1 µM of 37%. `CC(F)(F)c1ccccc1N1CCN(CCCCOc2ccc3c(n2)NC(=O)CC3)CC1` [Example A42, 7-(4-{4-[2-(1,1-Difluoro-ethyl)-phenyl]-piperazin-1-yl}-butoxy)-3,4-dihydro-1H-[1,8]naphthyridin-2-one] yielded an Emax at 1 µM of 28%. As to `O=c1ccc2ccc(OCCN3CCN(c4cccc(Cl)c4Cl)CC3)nc2[nH]1` [Example C4, 7-{2-[4-(2,3-Dichloro-phenyl)-piperazin-1-yl]-ethoxy}-1H-[1,8]naphthyridin-2-one], the Emax at 1 µM is 2%. In the case of `CC(C)(CCCN1CCN(c2cccc(Cl)c2Cl)CC1)Oc1ccc2c(n1)NC(=O)CC2` [Example C7, 7-{4-[4-(2,3-Dichloro-phenyl)-piperazin-1-yl]-1,1-dimethyl-butoxy}-3,4-dihydro-1H-[1,8]naphthyridin-2-one], the Emax at 1 µM is 46%. As for `O=C1CCc2ccc(OCCCCN3CCN(c4ccc(F)c(Cl)c4Cl)CC3)nc2N1` [Example A8, 7-{4-[4-(2,3-Dichloro-4-fluoro-phenyl)-piperazin-1-yl]-butoxy}-3,4-dihydro-1H-[1,8]naphthyridin-2-one], the Emax at 1 µM came out at 7%. In turn, `O=c1ccc2ccc(OCCCCN3CCN(c4ccc(F)c(Cl)c4)CC3)nc2[nH]1` [Example B14, 7-{4-[4-(3-Chloro-4-fluoro-phenyl)-piperazin-1-yl]-butoxy}-1H-[1,8]naphthyridin-2-one] yielded an Emax at 1 µM of 37%.

Consider `O=C1CCc2ccc(OCCCCN3CCN(c4ccc(F)cc4F)CC3)nc2N1` [Example A41, 7-{4-[4-(2,4-Difluoro-phenyl)-piperazin-1-yl]-butoxy}-3,4-dihydro-1H-[1,8]naphthyridin-2-one], for which the Emax at 1 µM came out at 28%. Same read-out and setting: for `Cc1cccc(N2CCN(CCCCCc3ccc4c(n3)NC(=O)CC4)CC2)c1Cl` [Example C10, 7-{5-[4-(2-Chloro-3-methyl-phenyl)-piperazin-1-yl]-pentyl}-3,4-dihydro-1H-[1,8]naphthyridin-2-one] the value was 5%; for `CC(=O)c1ccc2cccc(N3CCN(CCCCOc4ccc5ccc(=O)[nH]c5n4)CC3)c2c1` [Example B62, 7-{4-[4-(7-Acetyl-naphthalen-1-yl)-piperazin-1-yl]-butoxy}-1H-[1,8]naphthyridin-2-one], 21%. For `CC(=O)c1ccc2ccccc2c1N1CCN(CCCCOc2ccc3ccc(=O)[nH]c3n2)CC1` [Example B66, 7-{4-[4-(2-Acetyl-naphthalen-1-yl)-piperazin-1-yl]-butoxy}-1H-[1,8]naphthyridin-2-one], the Emax at 1 µM was determined as 33%.

Regarding `Cc1ccc(Cl)cc1N1CCN(CCCCOc2ccc3c(n2)NC(=O)CC3)CC1` [Example A14, 7-{4-[4-(5-Chloro-2-methyl-phenyl)-piperazin-1-yl]-butoxy}-3,4-dihydro-1H-[1,8]naphthyridin-2-one], the Emax at 1 µM came out at 7%. For `Cc1cccc(N2CCN(CCCCOc3ccc4c(n3)NC(=O)CC4)CC2)n1` [Example A44, 7-{4-[4-(6-Methyl-pyridin-2-yl)-piperazin-1-yl]-butoxy}-3,4-dihydro-1H-[1,8]naphthyridin-2-one], the Emax at 1 µM is 51%. The same measure, in the same setting: for `O=c1ccc2ccc(OCCCCN3CCN(c4c(F)ccc5ccccc45)CC3)nc2[nH]1` [Example B54, 7-{4-[4-(2-Fluoro-naphthalen-1-yl)-piperazin-1-yl]-butoxy}-1H-[1,8]naphthyridin-2-one] the value was 15%. The same measure, in the same setting: next, `O=c1ccc2cnc(NCCCCN3CCN(c4cccc(Cl)c4Cl)CC3)cc2[nH]1` [Example I18, 7-{4-[4-(2,3-Dichloro-phenyl)-piperazin-1-yl]-butylamino}-1H-[1,6]naphthyridin-2-one]: 54%.

Still in this experiment, the particulars now being: Table 2; test compound 1 μM; 1 μM Quinpirole = 100% intrinsic activity.
In the case of `O=C1CCc2ccc(OCCCCN3CCN(c4cccc5ccc(=O)[nH]c45)CC3)nc2N1` [Example A47′, 7-{4-[4-(2-Oxo-1,2-dihydro-quinolin-8-yl)-piperazin-1-yl]-butoxy}-3,4-dihydro-1H-[1,8]naphthyridin-2-one], the Emax at 1 µM was 32%.

With `O=C1CCc2ccc(OCCCCN3CCN(c4cccc5nonc45)CC3)nc2N1` [Example A29′, 7-[4-(4-Benzo[1,2,5]oxadiazol-4-yl-piperazin-1-yl)-butoxy]-3,4-dihydro-1H-[1,8]naphthyridin-2-one], the Emax at 1 µM was 33%. `CC1C=Cc2cccc(N3CCN(CCCCOc4ccc5ccc(=O)[nH]c5n4)CC3)c2O1` (centres unmarked) [Example B4′, 7-{4-[4-(2-Methyl-2H-chromen-8-yl)-piperazin-1-yl]-butoxy}-1H-[1,8]naphthyridin-2-one]: the Emax at 1 µM amounted to 28%. In the case of `O=c1ccc2ccc(OCCCCN3CCN(c4cccc5cccnc45)CC3)nc2[nH]1` [Example B21′, 7-[4-(4-Quinolin-8-yl-piperazin-1-yl)-butoxy]-1H-[1,8]naphthyridin-2-one], the Emax at 1 µM was determined as 18%. As to `O=c1ccc2ccc(OCCCCN3CCN(c4cccc5ncccc45)CC3)nc2[nH]1` [Example B22′, 7-[4-(4-Quinolin-5-yl-piperazin-1-yl)-butoxy]-1H-[1,8]naphthyridin-2-one], the Emax at 1 µM turned out to be 12%. The molecule `O=c1ccc2ccc(OCCCCN3CCN(c4cccc5ccc(=O)[nH]c45)CC3)nc2[nH]1` [Example B36′, 7-{4-[4-(2-Oxo-1,2-dihydro-quinolin-8-yl)-piperazin-1-yl]-butoxy}-1H-[1,8]naphthyridin-2-one] showed an Emax at 1 µM of 36%. Regarding `O=c1ccc2ccc(OCCCCN3CCN(c4cccc5c4OC4(C=C5)CCCC4)CC3)nc2[nH]1` [Example B6′, 7-{4-[4-(Spiro[chromene-2,1′-cyclopentan]-8-yl)-piperazin-1-yl]-butoxy}-1H-[1,8]naphthyridin-2-one], the Emax at 1 µM worked out at 33%. For the molecule `CCN1CCCc2c1cccc2N1CCN(CCCCOc2ccc3ccc(=O)[nH]c3n2)CC1` [Example B29′, 7-{4-[4-(1-Ethyl-1,2,3,4-tetrahydro-quinolin-5-yl)-piperazin-1-yl]-butoxy}-1H-[1,8]naphthyridin-2-one], the Emax at 1 µM worked out at 26%. Molecule `O=C1CCc2cnc(OCCCCN3CCN(c4cccc5c4OC(F)(F)C(F)(F)O5)CC3)cc2N1` [Example H3′, 7-{4-[4-(2,2,3,3-Tetrafluoro-2,3-dihydro-benzo[1,4]dioxin-5-yl)-piperazin-1-yl]-butoxy}-3,4-dihydro-1H-[1,6]naphthyridin-2-one] registered an Emax at 1 µM of 22%.

The same experiment, now with this note: read-out: D2 Intrinsic Activity (%).
For `O=C1CCc2cnc(OCCCCN3CCN(c4cccc5ccc(F)cc45)CC3)cc2N1` [Example I6, 7-{4-[4-(7-Fluoro-naphthalen-1-yl)-piperazin-1-yl]-butoxy}-3,4-dihydro-1H-[1,6]naphthyridin-2-one], the Emax was 24%.
